According to patent US20230346889A9, “TREATMENT OF ACUTE HEART FAILURE” (AnaCardio R&D AB, priority 2019, published 2023):
Entries after “also recorded” stand apart in the source; their conditions may differ.

Assays:
[1] = system: isolated cardiomyocytes from SHAM and HF mice; test: Cytosolic Ca2+ transients and cell shortening in isolated cardiomyocytes; format: cell-based, mouse; settings: for cardiomyocyte fractional shortening (FS): 15 min ghrelin exposure, 100 nM, sham and post-MI HF mice; for cardiomyocyte Ca2+ transients (amplitude): SHAM and HF mice, vs placebo
From the text: Twelve-week old C57BL6 mice were anesthetized with gas mixture of oxygen and isoflurane (2-3%). Myocardial infarction (MI) was induced in mice by permanent ligation of the left coronary artery, as previously described (Perrino et al., 2013). Briefly, mice underwent thoracotomy and subsequent left coronary ligation; ˜80% survived during the follow-up period (4-6 weeks). SHAM-operated animals underwent the same procedure without coronary artery ligation (SHAM). At study termination, after sedation, mice were euthanized through cervical dislocation.
After euthanasia, single cardiomyocytes were isolated from the left and right ventricles (mouse hearts are dominated by left ventricles) and atria were excluded, following the protocols developed by the Alliance for Cellular Signalling (AfCS Procedure Protocol ID PP00000 125) as previously described (Pironti et al., 2016).
Mouse cardiomyocytes were incubated with a cell permeable form of fluorescent indicators Fluo-3 AM followed by washing for >5 min as previously described (Andersson et al., 2011). Cardiomyocytes were plated on laminin coated glass bottom dishes. The dishes were placed in a custom built perfusion/stimulation chamber and continuously perfused with O2/CO2 (95/5%) bubbled Tyrode solution with the following composition (in mM): NaCl 121, KCl 5.0, CaCl2 1.8, MgCl2 0.5, NaH2PO4 0.4, NaHCO3 24, EDTA 0.1, glucose 5.5. The cardiomyocytes were stimulated to contract using an electrical field between two platinum electrodes attached to the perfusion/stimulation chamber. […] Fluorescence was measured using a confocal microscope Bio-Rad MRC 1024 unit attached to a Nikon Diaphot inverted microscope (40-60×oil immersion lenses). Confocal images were analyzed off line using ImageJ (National Institutes of Health; available at http://rsb.info.nih.gov/ij). Line scan confocal images were obtained from paced cardiomyocytes with the line scan running along the long axis of the cell. Changes in the emitted fluorescence, representing changes in free cytoplasmic Ca^2+, were quantified. The amplitude of Ca^2+ transients was measured as the change in the fluo-3 fluorescence signal (F) divided by the fluorescence immediately before a stimulation pulse given under control conditions (FO). Ca^2+ transient decay time constant (Tau) was quantified by fitting the decay to an exponential decay function in the GraphPad Prism software (La Jolla, Ca, USA). Fractional cell shortening was calculated from the line scan images as the fractional change in the cell length at rest and during maximal contraction.
The myocytes were superfused with physiological buffer (Tyrode solution) or for the pharmacological experiments Tyrode+Ghrelin (100 nM) or D-Lys 3 (D-Lys 3 GHS-R1a antagonist 3 μM). All cells were perfused for 15 min with respective solution before measurements, except in some experiments where D-Lys 3 (3 μM) was introduced in perfusion system 10 minutes before adding Ghrelin. All experiments were performed at room temperature (˜24° C.).
The myocytes were superfused with physiological buffer (Tyrode solution) with or without Ghrelin (Bachem, Bubendorf, Switzerland) (100 nM). All cardiomyocytes were superfused for 15 min with respective solution before measurements. An antagonist against the ghrelin receptor GHS-r1a (D-Lys 3; 3 μM), was used in some experiments. In those experiments, D-Lys 3 was introduced in superfusion system 10 minutes before adding Ghrelin.

[2] = system: patients with advanced CHF and reduced EF; test: Trial QTc interval (12-lead ECG, Bazett); format: in vivo, human
Procedure: A plethysmographic based (finger-cuff) approach was used to measure blood pressure (Nexfin®, BMEYE B.V., Amsterdam, The Netherlands). Nexfin was also used for heart rate monitoring. Heart rate and blood pressure data were measured continuously, beat-by-beat, throughout the study protocol. The data was then averaged over 15 minutes following the Innocor measurements. In addition EKG was assessed before start of and during infusion at 60 and 120 minutes and after the ad lib lunch. QT intervals were measured in the precordial lead V5 in 12-lead surface ECGs, at 50 mm/sec paper speed and 10 mm/mV amplitude. Heart rate corrected QT intervals (QTc) were manually calculated with the Bazett formula, QTc=QT/RR^1/2, using the RR interval preceding the measured QT interval. The mean QTc from 3 heart beats was recorded.
The difference in change in heart rate between the groups was quantified. Bradycardia was defined as a reduction in heart rate of >15 beats per minute, to a heart rate <40 beats per minute, an increase in PQ time by >20 ms, or AV block II-III. In individual patients, tachycardia was defined as an increase in heart rate by >10 beats per minute or heart rate >110 beats per minute. Ventricular extraystoles were quantified and ventricular tachycardia was defined as non-sustained if ≥3 beats in a row up to ≤30 seconds, and sustained if >30 seconds. Supra-ventricular arrhythmia was defined as ectopic atrial tachycardia, atrial flutter or atrial fibrillation, or AV-nodal tachycardia of >3 seconds duration. Ghrelin may […] hERG channels and as such cause a prolongation of the QTc interval on the EKG, which theoretically could predispose to arrhythmia. Therefor we monitored QTc.

[3] = After infusion, prior to discharge

Structure (SMILES): CCCCCCCC(=O)OC[C@H](NC(=O)[C@H](CO)NC(=O)CN)C(=O)N[C@@H](Cc1ccccc1)C(=O)N[C@@H](CC(C)C)C(=O)N[C@@H](CO)C(=O)N1CCC[C@H]1C(=O)N[C@@H](CCC(=O)O)C(=O)N[C@@H](Cc1cnc[nH]1)C(=O)N[C@@H](CCC(N)=O)C(=O)N[C@@H](CCCNC(=N)N)C(=O)N[C@H](C(=O)N[C@@H](CCC(N)=O)C(=O)N[C@@H](CCC(N)=O)C(=O)N[C@@H](CCCNC(=N)N)C(=O)N[C@@H](CCCCN)C(=O)N[C@@H](CCC(=O)O)C(=O)N[C@@H](CO)C(=O)N[C@@H](CCCCN)C(=O)N[C@@H](CCCCN)C(=O)N1CCC[C@H]1C(=O)N1CCC[C@H]1C(=O)N[C@@H](C)C(=O)N[C@@H](CCCCN)C(=O)N[C@@H](CC(C)C)C(=O)N[C@@H](CCC(N)=O)C(=O)N1CCC[C@H]1C(=O)N[C@@H](CCCNC(=N)N)C(=O)O)C(C)C [Ghrelin]
- kinetics of Ca2+ transients (ROI and Tau) [1]: did not affect
- cardiomyocyte fractional shortening (FS) [1]: increases contractility
- cardiomyocyte fractional shortening (FS) ([1]; listed as ghrelin): increased compared to placebo
- cardiomyocyte Ca2+ transients (amplitude) [1]: did not differ
- cardiomyocyte Ca2+ transients (amplitude) ([1]; listed as ghrelin): not different; also recorded: no difference
- Maximal QTc prolongation from baseline ([2]; 2-5 days after): +47 ms
- Median (interquartile range) changes in QTc from baseline ([2]; 2-5 days after): −4 (−34 to +4) ms
- Maximal QTc prolongation from baseline [2, 3]: +47 ms
- Median (interquartile range) changes in QTc from baseline [2, 3]: +18 (−10 to +30) ms
- Maximal QTc prolongation from baseline ([2]; During infusion, 60 minutes): +36 ms
- Median (interquartile range) changes in QTc from baseline ([2]; During infusion, 60 minutes): +4 (−7 to +21) ms
- Maximal QTc prolongation from baseline ([2]; During infusion, 120 minutes): +45 ms
- Median (interquartile range) changes in QTc from baseline ([2]; During infusion, 120 minutes): +8 (−4 to +26) ms
- change in QTc ([2]; in vivo): nominal but not significant increase
